# Values joined by “and” are separate entries in the source; they are usually repeats but may differ in a detail not shown here. Equal values may be shown once.
# System: CD56+γδTCR+iTCR+ cells
# Assay: AVM0703 R/R NHL clinical trial, whole blood flow cytometry
# Type: in vivo, human
# Protocol: FIG. 15. 101-001 size (FSC) and complexity (SSC) scattergram of AVM_NKT cells. […] Blood was stained with panel antibodies based for 15 minutes in the dark at Room Temperature. RBC lysis was performed by addition of 1 mL of 1×BD FACS Lysing Solution (BD Bioscience), diluted with MilliQ water, for 10 minutes in the dark at Room Temperature. Samples were washed with 2 mL 1×DPBS CMF (Gibco) and resuspended in 300 μL of 1×DPBS CMF before 5 μL of 7AAD (Biolegend) was added to each sample for live/dead cell determination and incubated for 5 minutes in the dark at Room Temperature. 250 μL of sample were taken up for acquisition on Macsquant 16 Flow Cytometer (Miltenyi, Serial #40150). Live white blood cells were gated for CD56+ cells co-expressing gamma delta TCR and the invariant TCR and labelled red in the forward versus side scattergram. Red-labelled cells fall within the forward versus side scattergrams where large granular cells such as neutrophils and large granular lymphocytes are known to fall.
# For characterisation of the induced/mobilized population of NKT-like cells (AVM-NKT) in humans, whole blood from human subjects was drawn in K2 EDTA Vacutainer tube (367862, BD Biosciences, NJ) and shipped to AVM Biotechnology at room temperature. 100 μl of whole blood was stained with the following antibodies: CD45 AF700 (2D1), CD16 APC (3G8), INKT PECy7 (6B11), CD8 PE (SK1), CD14 FITC (M5E2), CD56 BV650 (5.1H11), γδTCR BV510 (B1), CD19 BV421 (HIB19), NKp44 APC (P44-8) (all from Biolegend, San Diego, CA) and CD3 APCVio770 (BW264/56), (Miltenyi Biotec, San Jose, CA), 7-AAD, (Biolegend, San Diego CA) was included to distinguish the live and dead cells.
# [1] = patient 108-001, 1st 9 mg/kg infusion, 1 hour
# [2] = patient 108-001, 1st 9 mg/kg infusion, Day 3
# [3] = patient 108-001, 1st 9 mg/kg infusion, Day 14
# [4] = patient 108-001, 2nd 9 mg/kg infusion, 1 hour
# [5] = patient 108-001, 2nd 9 mg/kg infusion, Day 3
# [6] = patient 108-001, 2nd 9 mg/kg infusion, Day 14
# [7] = patient 108-002, 18 mg/kg, 1 hour post-infusion
# [8] = patient 108-002, 18 mg/kg, Day 3
# [9] = patient 108-002, 18 mg/kg, Day 14
# [10] = patient 108-003, 12 mg/kg, 1 hour post-infusion
# [11] = patient 108-003, 12 mg/kg, Day 3
# [12] = patient 108-003, 12 mg/kg, Day 14
compound,measurement,setting,value
"C[C@@H]1C[C@H]2[C@@H]3CCC4=CC(=O)C=C[C@]4(C)[C@@]3(F)[C@@H](O)C[C@]2(C)[C@@]1(O)C(=O)COP(=O)(O)O [AVM0703, dexamethasone sodium phosphate]",CD45 (as % of CD56+ γδTCR+ iTCR+ cells),[1],96%
same,CD56+ γδTCR+ iTCR+ % of total WBCs,[1],0.72%
same,CD56+ γδTCR+ iTCR+ cells/uL,[1],112 cells/uL
same,CD3 (as % of CD56+ γδTCR+ iTCR+ cells),[2],24%
same,CD8hi (as % of CD56+ γδTCR+ iTCR+ cells),[2],2%
same,CD8med (as % of CD56+ γδTCR+ iTCR+ cells),[2],16%
same,CD14+ (as % of CD56+ γδTCR+ iTCR+ cells),[2],50%
same,CD16 (as % of CD56+ γδTCR+ iTCR+ cells),[2],80%
same,CD19+ (as % of CD56+ γδTCR+ iTCR+ cells),[2],24%
same,CD45 (as % of CD56+ γδTCR+ iTCR+ cells),[2],98%
same,CD56+ γδTCR+ iTCR+ % of total WBCs,[2],0.22%
same,CD56+ γδTCR+ iTCR+ cells/uL,[2],36 cells/uL and 36.0 cells/uL
same,CD56+ γδTCR+ iTCR+ % of total WBCs,[3],0.06%
same,CD56+ γδTCR+ iTCR+ cells/uL,[3],3 cells/uL
same,CD3 (as % of CD56+ γδTCR+ iTCR+ cells),[4],23%
same,CD8hi (as % of CD56+ γδTCR+ iTCR+ cells),[4],2.2%
same,CD8med (as % of CD56+ γδTCR+ iTCR+ cells),[4],4.4%
same,CD14+ (as % of CD56+ γδTCR+ iTCR+ cells),[4],81%
same,CD16 (as % of CD56+ γδTCR+ iTCR+ cells),[4],89%
same,CD19+ (as % of CD56+ γδTCR+ iTCR+ cells),[4],26%
same,CD45 (as % of CD56+ γδTCR+ iTCR+ cells),[4],13%
same,CD56+ γδTCR+ iTCR+ % of total WBCs,[4],0.84%
same,CD56+ γδTCR+ iTCR+ cells/uL,[4],26 cells/uL
same,CD3 (as % of CD56+ γδTCR+ iTCR+ cells),[5],49%
same,CD8hi (as % of CD56+ γδTCR+ iTCR+ cells),[5],1%
same,CD8med (as % of CD56+ γδTCR+ iTCR+ cells),[5],55%
same,CD14+ (as % of CD56+ γδTCR+ iTCR+ cells),[5],35%
same,CD16 (as % of CD56+ γδTCR+ iTCR+ cells),[5],58%
same,CD19+ (as % of CD56+ γδTCR+ iTCR+ cells),[5],17%
same,CD45 (as % of CD56+ γδTCR+ iTCR+ cells),[5],11%
same,CD56+ γδTCR+ iTCR+ % of total WBCs,[5],0.19%
same,CD56+ γδTCR+ iTCR+ cells/uL,[5],10.2 cells/uL
same,CD3 (as % of CD56+ γδTCR+ iTCR+ cells),[6],22%
same,CD8hi (as % of CD56+ γδTCR+ iTCR+ cells),[6],4%
same,CD8med (as % of CD56+ γδTCR+ iTCR+ cells),[6],20%
same,CD14+ (as % of CD56+ γδTCR+ iTCR+ cells),[6],76%
same,CD16 (as % of CD56+ γδTCR+ iTCR+ cells),[6],82%
same,CD19+ (as % of CD56+ γδTCR+ iTCR+ cells),[6],28%
same,CD45 (as % of CD56+ γδTCR+ iTCR+ cells),[6],84%
same,CD56+ γδTCR+ iTCR+ % of total WBCs,[6],0.43%
same,CD56+ γδTCR+ iTCR+ cells/uL,[6],20 cells/uL
same,AVM_NKT CD56+γδTCR+iTCR+ cells in the blood,"patient 108-001, after the third 9 mg/kg infusion",not evident in the blood
same,CD56+gdTCR+ inv TCR+ cells induced,"patient 108-002, 18 mg/kg",YES
same,CD3 (as % of CD56+ γδTCR+ iTCR+ cells),[7],83.2%
same,CD8hi (as % of CD56+ γδTCR+ iTCR+ cells),[7],88%
same,CD8med (as % of CD56+ γδTCR+ iTCR+ cells),[7],12.3%
same,CD14+ (as % of CD56+ γδTCR+ iTCR+ cells),[7],79%
same,CD16 (as % of CD56+ γδTCR+ iTCR+ cells),[7],87%
same,CD19+ (as % of CD56+ γδTCR+ iTCR+ cells),[7],98%
same,CD45 (as % of CD56+ γδTCR+ iTCR+ cells),[7],100%
same,CD56+ γδTCR+ iTCR+ cells/uL,[7],49.5 cells/uL
same,CD56+ γδTCR+ iTCR+ % of total WBCs,[8],0.04%
same,CD56+ γδTCR+ iTCR+ cells/uL,[8],2.3 cells/uL
same,CD3 (as % of CD56+ γδTCR+ iTCR+ cells),[9],72%
same,CD8hi (as % of CD56+ γδTCR+ iTCR+ cells),[9],73%
same,CD8med (as % of CD56+ γδTCR+ iTCR+ cells),[9],16.5%
same,CD14+ (as % of CD56+ γδTCR+ iTCR+ cells),[9],80%
same,CD16 (as % of CD56+ γδTCR+ iTCR+ cells),[9],41.2%
same,CD19+ (as % of CD56+ γδTCR+ iTCR+ cells),[9],80%
same,CD45 (as % of CD56+ γδTCR+ iTCR+ cells),[9],84%
same,CD56+ γδTCR+ iTCR+ % of total WBCs,[9],0.25%
same,CD56+ γδTCR+ iTCR+ cells/uL,[9],9.7 cells/uL
same,CD56+gdTCR+ inv TCR+ cells induced,"patient 108-003, 12 mg/kg",YES
same,CD3 (as % of CD56+ γδTCR+ iTCR+ cells),[10],14%
same,CD8hi (as % of CD56+ γδTCR+ iTCR+ cells),[10],1.7%
same,CD8med (as % of CD56+ γδTCR+ iTCR+ cells),[10],9%
same,CD14+ (as % of CD56+ γδTCR+ iTCR+ cells),[10],43%
same,CD16 (as % of CD56+ γδTCR+ iTCR+ cells),[10],85%
same,CD19+ (as % of CD56+ γδTCR+ iTCR+ cells),[10],40%
same,CD45 (as % of CD56+ γδTCR+ iTCR+ cells),[10],95%
same,CD56+ γδTCR+ iTCR+ % of total WBCs,[10],0.4%
same,CD56+ γδTCR+ iTCR+ cells/uL,[10],31.8 cells/uL
same,CD3 (as % of CD56+ γδTCR+ iTCR+ cells),[11],80%
same,CD8hi (as % of CD56+ γδTCR+ iTCR+ cells),[11],12.6%
same,CD8med (as % of CD56+ γδTCR+ iTCR+ cells),[11],45%
same,CD14+ (as % of CD56+ γδTCR+ iTCR+ cells),[11],68%
same,CD16 (as % of CD56+ γδTCR+ iTCR+ cells),[11],75%
same,CD19+ (as % of CD56+ γδTCR+ iTCR+ cells),[11],11.5%
same,CD45 (as % of CD56+ γδTCR+ iTCR+ cells),[11],67%
same,CD56+ γδTCR+ iTCR+ % of total WBCs,[11],0.6%
same,CD56+ γδTCR+ iTCR+ cells/uL,[11],58.4 cells/uL
same,CD3 (as % of CD56+ γδTCR+ iTCR+ cells),[12],90%
same,CD8hi (as % of CD56+ γδTCR+ iTCR+ cells),[12],8%
same,CD8med (as % of CD56+ γδTCR+ iTCR+ cells),[12],84%
same,CD14+ (as % of CD56+ γδTCR+ iTCR+ cells),[12],87%
same,CD16 (as % of CD56+ γδTCR+ iTCR+ cells),[12],89%
same,CD19+ (as % of CD56+ γδTCR+ iTCR+ cells),[12],12.4%
same,CD45 (as % of CD56+ γδTCR+ iTCR+ cells),[12],94%
same,CD56+ γδTCR+ iTCR+ % of total WBCs,[12],0.83%
same,CD56+ γδTCR+ iTCR+ cells/uL,[12],94 cells/uL
same,CD56+γδTCR+invTCR+ cells in blood,"patient 108-004, 12 mg/kg, one hour, 3 days or 14 days after infusion (pre-infusion 0.09%, 4.6 cells/uL)",no increase

# Reference: patent US20240358829A1, “Lymphocyte Population and Methods for Producing Same” (AVM Biotechnology, LLC, priority 2021, published 2024)
